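In this assay, cells in 96-well plates receive the compound at five concentrations for 48 hours. Endpoints are linearly interpolated between the surrounding concentrations. GI50 marks 50% less growth. At the TGI there is no net growth.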
How the values were obtained:
Assay in all cases: NCI anticancer screen, dose series, 48 h
[1] = tested on: SN12C renal
[2] = tested on: IGROV1 ovarian
[3] = tested on: HL-60(TB) leukemia
[4] = tested on: U251 CNS
[5] = tested on: HCT-15 colon
[6] = tested on: SNB-19 CNS
[7] = tested on: A498 renal
[8] = tested on: K-562 leukemia
[9] = tested on: SK-MEL-2 melanoma
[10] = tested on: MDA-MB-435
[11] = tested on: SF-539 CNS
[12] = tested on: SF-268 CNS
[13] = tested on: SNB-75 CNS
[14] = tested on: UACC-62 melanoma
[15] = tested on: NCI/ADR-RES ovarian
[16] = tested on: 786-0 renal
[17] = tested on: OVCAR-8 ovarian
[18] = tested on: SW-620 colon
[19] = tested on: NCI-H522 lung
[20] = tested on: LOX IMVI melanoma
[21] = tested on: MCF7 breast
[22] = tested on: HT29 colon
[23] = tested on: SK-OV-3 ovarian
[24] = tested on: UACC-257 melanoma
[25] = tested on: A549 NSCLC
[26] = tested on: SF-295 CNS
[27] = tested on: SR leukemia
[28] = tested on: HS 578T breast
[29] = tested on: NCI-H23 lung
[30] = tested on: DU-145 prostate
[31] = tested on: UO-31 renal
[32] = tested on: HCT-116 colon
[33] = tested on: CAKI-1 renal
[34] = tested on: NCI-H460 lung
[35] = tested on: HCC-2998 colon
[36] = tested on: ACHN renal
[37] = tested on: TK-10 renal
[38] = tested on: BT-549 breast
[39] = tested on: MALME-3M melanoma
[40] = tested on: SK-MEL-5 melanoma
[41] = tested on: MDA-MB-231 breast
[42] = tested on: CCRF-CEM leukemia
[43] = tested on: M14 melanoma
[44] = tested on: HOP-92 NSCLC
[45] = tested on: HOP-62 NSCLC
[46] = tested on: KM12 colon
[47] = tested on: PC-3 prostate
[48] = tested on: EKVX NSCLC
[49] = tested on: MOLT-4 leukemia
[50] = tested on: RPMI-8226 leukemia
[51] = tested on: OVCAR-4 ovarian
[52] = tested on: COLO 205 colon
[53] = tested on: OVCAR-5 ovarian
[54] = tested on: SK-MEL-28 melanoma
[55] = tested on: T-47D breast
[56] = tested on: OVCAR-3 ovarian
[57] = tested on: NCI-H226 lung
[58] = tested on: RXF 393 renal

In the case of `N#Cc1cnc(=O)n(C2CC(O)C(CO)O2)c1` (stereo not drawn), the GI50 [1] is reported as > 100 µM, the TGI [1] is reported as > 100 µM and the GI50 [2] is reported as > 100 µM. The TGI [2] was > 100 µM, the GI50 [3] was > 100 µM and the TGI [3] was > 100 µM. The GI50 [4] was > 100 µM, the TGI [4] was > 100 µM and the GI50 [5] was > 100 µM. The TGI [5] was > 100 µM, the GI50 [6] was > 100 µM and the TGI [6] was > 100 µM. It also gave a GI50 [7] of 17.5 µM, a TGI [7] of 82 µM and a GI50 [8] of 93.1 µM. The TGI [8] was > 100 µM, the GI50 [9] was > 100 µM and the TGI [9] was > 100 µM. The GI50 [10] was > 100 µM, the TGI [10] was > 100 µM and the GI50 [11] was > 100 µM. The TGI [11] was > 100 µM, the GI50 [12] was > 100 µM and the TGI [12] was > 100 µM. For the same compound, the GI50 [13] was 44.1 µM, the TGI [13] was > 100 µM and the GI50 [14] was > 100 µM. The TGI [14] was > 100 µM, the GI50 [15] was > 100 µM and the TGI [15] was > 100 µM. For the same compound, the GI50 [16] was > 100 µM, the TGI [16] was > 100 µM and the GI50 [17] was > 100 µM. The TGI [17] was > 100 µM, the GI50 [18] was > 100 µM and the TGI [18] was > 100 µM. The GI50 [19] was > 100 µM, the TGI [19] was > 100 µM and the GI50 [20] was > 100 µM. For the same compound, the TGI [20] was > 100 µM, the GI50 [21] was > 100 µM and the TGI [21] was > 100 µM. For the same compound, the GI50 [22] was > 100 µM, the TGI [22] was > 100 µM and the GI50 [23] was > 100 µM. For the same compound, the TGI [23] was > 100 µM, the GI50 [24] was > 100 µM and the TGI [24] was > 100 µM. The GI50 [25] was > 100 µM, the TGI [25] was > 100 µM and the GI50 [26] was > 100 µM. The TGI [26] was > 100 µM, the GI50 [27] was > 100 µM and the TGI [27] was > 100 µM. For the same compound, the GI50 [28] was > 100 µM, the TGI [28] was > 100 µM and the GI50 [29] was > 100 µM. The TGI [29] was > 100 µM, the GI50 [30] was > 100 µM and the TGI [30] was > 100 µM. For the same compound, the GI50 [31] was 51.6 µM, the TGI [31] was > 100 µM and the GI50 [32] was > 100 µM. The TGI [32] was > 100 µM, the GI50 [33] was > 100 µM and the TGI [33] was > 100 µM. For the same compound, the GI50 [34] was > 100 µM, the TGI [34] was > 100 µM and the GI50 [35] was > 100 µM. For the same compound, the TGI [35] was > 100 µM, the GI50 [36] was > 100 µM and the TGI [36] was > 100 µM. For the same compound, the GI50 [37] was > 100 µM, the TGI [37] was > 100 µM and the GI50 [38] was > 100 µM. For the same compound, the TGI [38] was > 100 µM, the GI50 [39] was > 100 µM and the TGI [39] was > 100 µM. The GI50 [40] was > 100 µM, the TGI [40] was > 100 µM and the GI50 [41] was > 100 µM. The TGI [41] was > 100 µM, the GI50 [42] was > 100 µM and the TGI [42] was > 100 µM. For the same compound, the GI50 [43] was > 100 µM, the TGI [43] was > 100 µM and the GI50 [44] was > 100 µM. The TGI [44] was > 100 µM, the GI50 [45] was > 100 µM and the TGI [45] was > 100 µM. The GI50 [46] was > 100 µM, the TGI [46] was > 100 µM and the GI50 [47] was > 100 µM. For the same compound, the TGI [47] was > 100 µM, the GI50 [48] was > 100 µM and the TGI [48] was > 100 µM. The GI50 [49] was > 100 µM, the TGI [49] was > 100 µM and the GI50 [50] was > 100 µM. The TGI [50] was > 100 µM, the GI50 [51] was > 100 µM and the TGI [51] was > 100 µM. The GI50 [52] was > 100 µM, the TGI [52] was > 100 µM and the GI50 [53] was > 100 µM. The TGI [53] was > 100 µM, the GI50 [54] was > 100 µM and the TGI [54] was > 100 µM. For the same compound, the GI50 [55] was > 100 µM, the TGI [55] was > 100 µM and the GI50 [56] was > 100 µM. The TGI [56] was > 100 µM, the GI50 [57] was > 100 µM and the TGI [57] was > 100 µM.

`O=C1CCC/C=C\C[C@H]2C=CC(=O)/C2=C/C[C@H](CCc2cccc(C(F)(F)F)c2)O1` gave a GI50 [1] of 3.66 µM, a TGI [1] of 12.9 µM and a GI50 [2] of 3.06 µM. The TGI [2] was 9.53 µM, the GI50 [3] was 2.1 µM and the TGI [3] was 6.88 µM. It also gave a GI50 [4] of 1.26 µM, a TGI [4] of 2.85 µM and a GI50 [5] of 1.23 µM. For the same compound, the TGI [5] was 4.07 µM, the GI50 [6] was 2.22 µM and the TGI [6] was 7.04 µM. The GI50 [7] was 1.68 µM, the TGI [7] was 3.22 µM and the GI50 [8] was 0.692 µM. The TGI [8] was 6.44 µM, the GI50 [9] was 2.06 µM and the TGI [9] was 4.94 µM. For the same compound, the GI50 [10] was 0.462 µM, the TGI [10] was 2.7 µM and the GI50 [11] was 2.61 µM. For the same compound, the TGI [11] was 6.81 µM, the GI50 [12] was 2.77 µM and the TGI [12] was 8.3 µM. It also gave a GI50 [13] of 2.02 µM, a TGI [13] of 5.21 µM and a GI50 [14] of 2.34 µM. The TGI [14] was 7.52 µM, the GI50 [15] was 0.748 µM and the TGI [15] was 11.3 µM. It also gave a GI50 [16] of 1.99 µM, a TGI [16] of 3.68 µM and a GI50 [17] of 0.495 µM. The TGI [17] was 5.64 µM, the GI50 [18] was 2.87 µM and the TGI [18] was 9.06 µM. It also gave a GI50 [19] of 1.23 µM, a TGI [19] of 3.77 µM and a GI50 [20] of 0.44 µM. For the same compound, the TGI [20] was 1.82 µM, the GI50 [21] was 0.287 µM and the TGI [21] was 2.58 µM. The GI50 [22] was 1.11 µM, the TGI [22] was 3.39 µM and the GI50 [23] was 2.92 µM. The TGI [23] was 7.75 µM, the GI50 [24] was 2.11 µM and the TGI [24] was 5.18 µM. For the same compound, the GI50 [25] was 2.31 µM, the TGI [25] was 5.56 µM and the GI50 [26] was 2.15 µM. For the same compound, the TGI [26] was 4.83 µM, the GI50 [27] was 0.627 µM and the TGI [27] was 5.62 µM. For the same compound, the GI50 [28] was 4.78 µM, the TGI [28] was 56.7 µM and the GI50 [29] was 2.16 µM. The TGI [29] was 5.89 µM, the GI50 [30] was 1.66 µM and the TGI [30] was 4.58 µM. The GI50 [31] was 1.57 µM, the TGI [31] was 3 µM and the GI50 [32] was 0.327 µM. It also gave a TGI [32] of 1.48 µM, a GI50 [33] of 4.04 µM and a TGI [33] of 16 µM. It also gave a GI50 [58] of 1.66 µM, a TGI [58] of 3.08 µM and a GI50 [34] of 3.18 µM. The TGI [34] was 10.1 µM, the GI50 [35] was 2.01 µM and the TGI [35] was 3.54 µM. It also gave a GI50 [36] of 1.19 µM, a TGI [36] of 2.6 µM and a GI50 [37] of 2.66 µM. For the same compound, the TGI [37] was 5.19 µM, the GI50 [38] was 2.57 µM and the TGI [38] was 7.99 µM. It also gave a GI50 [39] of 2.25 µM, a TGI [39] of 7.1 µM and a GI50 [40] of 1.69 µM. The TGI [40] was 3.09 µM, the GI50 [41] was 4.41 µM and the TGI [41] was 18.2 µM. It also gave a GI50 [42] of 0.397 µM, a TGI [42] of 11.4 µM and a GI50 [43] of 1.76 µM. It also gave a TGI [43] of 5.32 µM, a GI50 [44] of 2.29 µM and a TGI [44] of 4.77 µM. It also gave a GI50 [45] of 2.84 µM, a TGI [45] of 6.83 µM and a GI50 [46] of 1.64 µM. It also gave a TGI [46] of 3.35 µM, a GI50 [47] of 1.79 µM and a TGI [47] of 4.74 µM. The GI50 [48] was 1.94 µM, the TGI [48] was 4.08 µM and the GI50 [49] was 2.14 µM. The TGI [49] was 6.26 µM, the GI50 [50] was 0.628 µM and the TGI [50] was 6.73 µM. The GI50 [51] was 3.78 µM, the TGI [51] was 15.9 µM and the GI50 [52] was 1.58 µM. For the same compound, the TGI [52] was 4.16 µM, the GI50 [53] was 4.05 µM and the TGI [53] was 11.3 µM. For the same compound, the GI50 [54] was 2.56 µM, the TGI [54] was 6.75 µM and the GI50 [55] was 1.78 µM. The TGI [55] was 7.12 µM, the GI50 [56] was 1.46 µM and the TGI [56] was 3.23 µM.
